Where a name gives a salt, the structure may show the parent alone.
biological target: T1, human B1 (Homo sapiens, UniProt P46663); assay: Calcium flux assay for Bradykinin B1 antagonist, CHO-K1 cell line expressing human B1; type: cell-based; details: CHO-K1 cells expressing human B1, agonist Lys-(Des-Arg)-Bradykinin, read-out: Potency (IC50 value against human B1)
T1 construct: host or cells: CHO-K1
T1 sequence (P46663 1-353): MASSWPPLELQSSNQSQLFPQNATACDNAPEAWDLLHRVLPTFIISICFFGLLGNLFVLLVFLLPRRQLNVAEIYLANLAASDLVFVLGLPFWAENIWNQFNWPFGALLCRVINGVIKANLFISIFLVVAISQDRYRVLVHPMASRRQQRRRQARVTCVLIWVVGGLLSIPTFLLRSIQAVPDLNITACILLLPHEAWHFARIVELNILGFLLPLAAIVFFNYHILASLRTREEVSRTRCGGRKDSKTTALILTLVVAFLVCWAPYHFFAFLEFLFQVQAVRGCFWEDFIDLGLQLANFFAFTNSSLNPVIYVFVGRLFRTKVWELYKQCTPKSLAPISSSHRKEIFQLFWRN
Summary of the method: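 Inhibition of B1 agonist-evoked intracellular Ca2+ rise was followed by continuous fluorescence at 538 nm, with integrated, background-normalized signals plotted versus log compound concentration. Test compounds (eight 10-fold dilutions, triplicate, 1% DMSO final) were added 30 min at 25° C beforehand to Fluo-4AM-loaded human B1 CHO-K1 cells in pH 7.4 assay buffer.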

| SMILES | IC50 [nM] |
| --- | --- |
| COc1cc(C)c(S(=O)(=O)N(C)Cc2nc(C(=O)N(C)Cc3ccc(CN4CCC(N(C)C)C4)cc3)co2)c(C)c1 (stereo not shown) [Ex 177, N-(4-{[3-(Dimethylamino)pyrrolidin-1-yl]methyl}benzyl)-2-({[(4-methoxy-2,6-dimethylphenyl)sulfonyl](methyl)amino}methyl)-N-methyl-1,3-oxazole-4-carboxamide] | 10 to 100 |
| COc1cc(C)c(S(=O)(=O)N(C)Cc2nc(C(=O)N(C)Cc3ccc(CN4CCC(O)C4)cc3)co2)c(C)c1 (stereo not shown) [Ex 178, N-{4-[(3-Hydroxypyrrolidin-1-yl)methyl]benzyl}-2-({[(4-methoxy-2,6-dimethylphenyl)sulfonyl](methyl)amino}methyl)-N-methyl-1,3-oxazole-4-carboxamide] | < 10 |
| COc1cc(C)c(S(=O)(=O)N(C)Cc2nc(C(=O)N(C)Cc3ccc(CN4CCCC(O)C4)cc3)co2)c(C)c1 (stereo not shown) [Ex 179, N-{4-[(3-Hydroxypiperidin-1-yl)methyl]benzyl}-2-({[(4-methoxy-2,6-dimethylphenyl)sulfonyl](methyl)amino}methyl)-N-methyl-1,3-oxazole-4-carboxamide] | < 10 |
| COc1cc(C)c(S(=O)(=O)N(Cc2nc(C(=O)N(C)Cc3ccc(CN4CCC(OC)CC4)cc3)co2)C2CC2)c(C)c1 [Ex 183, 2-({Cyclopropyl[(4-methoxy-2,6-dimethylphenyl)sulfonyl]amino}methyl)-N-{4-[(4-methoxypiperidin-1-yl)methyl]benzyl}-N-methyl-1,3-oxazole-4-carboxamide] | < 10 |
| COc1cc(C)c(S(=O)(=O)N(Cc2nc(C(=O)N(C)Cc3ccc(CN4CC(O)C(O)C4)cc3)co2)C2CC2)c(C)c1 (stereo not shown) [Ex 189, 2-({Cyclopropyl[(4-methoxy-2,6-dimethylphenyl)sulfonyl]amino}methyl)-N-{4-[(3,4-dihydroxypyrrolidin-1-yl)methyl]benzyl}-N-methyl-1,3-oxazole-4-carboxamide] | < 10 |
| COc1cc(C)c(S(=O)(=O)N(Cc2nc(C(=O)N3CCN(CC4CCN(C)CC4)CC3)co2)C2CC2)c(C)c1 [Ex 191, N-Cyclopropyl-4-methoxy-2,6-dimethyl-N-{[4-({4-[(1-methylpiperidin-4-yl)methyl]piperazin-1-yl}carbonyl)-1,3-oxazol-2-yl]methyl}benzenesulfonamide trifluoroacetate trifluoroacetate] | < 10 |
| COc1cc(C)c(S(=O)(=O)N(Cc2nc(C(=O)N3CCN(CC4CCCN(C)C4)CC3)co2)C2CC2)c(C)c1 (stereo not shown) [Ex 192, N-Cyclopropyl-4-methoxy-2,6-dimethyl-N-{[4-({4-[(1-methylpiperidin-3-yl)methyl]piperazin-1-yl}carbonyl)-1,3-oxazol-2-yl]methyl}benzenesulfonamide trifluoroacetate] | < 10 |
| COc1cc(C)c(S(=O)(=O)N(Cc2nc(C(=O)N3CCC(CCN4CCCC4)CC3)co2)C2CC2)c(C)c1 [Ex 193, N-Cyclopropyl-4-methoxy-2,6-dimethyl-N-[(4-{[4-(2-pyrrolidin-1-ylethyl)piperidin-1-yl]carbonyl}-1,3-oxazol-2-yl)methyl]benzenesulfonamide trifluoroacetate] | < 10 |
| COc1cc(C)c(S(=O)(=O)N(Cc2nc(C(=O)N3CCN(CCN4CCCCC4)CC3)co2)C2CC2)c(C)c1 [Ex 194, N-Cyclopropyl-4-methoxy-2,6-dimethyl-N-[(4-{[4-(2-piperidin-1-ylethyl)piperazin-1-yl]carbonyl}-1,3-oxazol-2-yl)methyl]benzenesulfonamide trifluoroacetate] | < 10 |
| COc1cc(C)c(S(=O)(=O)N(Cc2nc(C(=O)N3CCN(CCN4CCCC4)CC3)co2)C2CC2)c(C)c1 [Ex 195, N-Cyclopropyl-4-methoxy-2,6-dimethyl-N-[(4-{[4-(2-pyrrolidin-1-ylethyl)piperazin-1-yl]carbonyl}-1,3-oxazol-2-yl)methyl]benzenesulfonamide trifluoroacetate] | < 10 |

The next lines start with the values.

| IC50 [nM] | SMILES |
| --- | --- |
| < 10 | COc1cc(C)c(S(=O)(=O)N(Cc2nc(C(=O)N(C)Cc3ccc(CN4CCCC(O)C4)cc3)co2)C2CC2)c(C)c1 (stereo not shown) [Ex 180, 2-({Cyclopropyl[(4-methoxy-2,6-dimethylphenyl)sulfonyl]amino}methyl)-N-{4-[(3-hydroxypiperidin-1-yl)methyl]benzyl}-N-methyl-1,3-oxazole-4-carboxamide] |
| < 10 | COc1cc(C)c(S(=O)(=O)N(Cc2nc(C(=O)N(C)Cc3ccc(CN4CCC(O)CC4)cc3)co2)C2CC2)c(C)c1 [Ex 181, 2-({Cyclopropyl[(4-methoxy-2,6-dimethylphenyl)sulfonyl]amino}methyl)-N-{4-[(4-hydroxypiperidin-1-yl)methyl]benzyl}-N-methyl-1,3-oxazole-4-carboxamide] |
| < 10 | COc1cc(C)c(S(=O)(=O)N(Cc2nc(C(=O)N(C)Cc3ccc(CN4CCC(OC)C4)cc3)co2)C2CC2)c(C)c1 (stereo not shown) [Ex 182, 2-({Cyclopropyl[(4-methoxy-2,6-dimethylphenyl)sulfonyl]amino}methyl)-N-{4-[(3-methoxypyrrolidin-1-yl)methyl]benzyl}-N-methyl-1,3-oxazole-4-carboxamide] |
| < 10 | COc1cc(C)c(S(=O)(=O)N(Cc2nc(C(=O)N(C)Cc3ccc(CN4CCCC(OC)C4)cc3)co2)C2CC2)c(C)c1 (stereo not shown) [Ex 184, 2-({Cyclopropyl[(4-methoxy-2,6-dimethylphenyl)sulfonyl]amino}methyl)-N-{4-[(3-methoxypiperidin-1-yl)methyl]benzyl}-N-methyl-1,3-oxazole-4-carboxamide] |
| < 10 | COc1cc(C)c(S(=O)(=O)N(Cc2nc(C(=O)N(C)Cc3ccc(CN4CCC(NC(C)=O)C4)cc3)co2)C2CC2)c(C)c1 (stereo not shown) [Ex 185, N-(4-{[3-(Acetylamino)pyrrolidin-1-yl]methyl}benzyl)-2-({cyclopropyl[(4-methoxy-2,6-dimethylphenyl)sulfonyl]amino}methyl)-N-methyl-1,3-oxazole-4-carboxamide] |
| < 10 | COc1cc(C)c(S(=O)(=O)N(Cc2nc(C(=O)N(C)Cc3ccc(CN4CCC(C(=O)N(C)C)C4)cc3)co2)C2CC2)c(C)c1 (stereo not shown) [Ex 186, 2-({Cyclopropyl[(4-methoxy-2,6-dimethylphenyl)sulfonyl]amino}methyl)-N-(4-{[3-(dimethylcarbamoyl)pyrrolidin-1-yl]methyl}benzyl)-N-methyl-1,3-oxazole-4-carboxamide] |
| < 10 | COc1cc(C)c(S(=O)(=O)N(Cc2nc(C(=O)N(C)Cc3ccc(CN4CC(OC)C4)cc3)co2)C2CC2)c(C)c1 [Ex 187, 2-({Cyclopropyl[(4-methoxy-2,6-dimethylphenyl)sulfonyl]amino}methyl)-N-{4-[(3-methoxyazetidin-1-yl)methyl]benzyl}-N-methyl-1,3-oxazole-4-carboxamide] |
| 10 to 100 | COc1cc(C)c(S(=O)(=O)N(Cc2nc(C(=O)N(C)Cc3ccc(CN4CC(O)C4)cc3)co2)C2CC2)c(C)c1 [Ex 188, 2-({Cyclopropyl[(4-methoxy-2,6-dimethylphenyl)sulfonyl]amino}methyl)-N-{4-[(3-hydroxyazetidin-1-yl)methyl]benzyl}-N-methyl-1,3-oxazole-4-carboxamide] |
| < 10 | COc1cc(C)c(S(=O)(=O)N(Cc2nc(C(=O)N(C)Cc3ccc(CN4CCC(N(C)C)C4)cc3)co2)C2CC2)c(C)c1 (stereo not shown) [Ex 190, 2-({Cyclopropyl[(4-methoxy-2,6-dimethylphenyl)sulfonyl]amino}methyl)-N-(4-{[3-(dimethylamino)pyrrolidin-1-yl]methyl}benzyl)-N-methyl-1,3-oxazole-4-carboxamide] |

From patent US8623859B2, “Bradykinin B1 antagonists” (Evotec AG, priority 2008, dated 2014)
